{"source": "patent US20260191838A1", "about": "“COMBINATIONS COMPRISING A MENIN-MLL INHIBITOR AND A BCL-2 INHIBITOR” (JANSSEN PHARMACEUTICA NV, priority 2022, published 2026)", "key": {"MOLM14 cells": {"system": "MOLM14 cells", "assay": "Proliferation (spheroid) assay, MOLM14", "format": "cell-based", "conditions": "Homo sapiens, MOLM-14, 192 h, 8 days; read-out: spheroid assay_MOLM14 IC50", "experimental": "(§1) The anti-proliferative effect of menin/MLL protein/protein interaction inhibitor test compounds was assessed in human leukemia cell lines. The cell line MOLM14 harbors a MLL translocation and expresses the MLL fusion protein MLL-AF9, respectively, as well as the wildtype protein from the second allele. OCI-AML3 cells that carry the NPM1c gene mutation were also tested. […] KO-52 was used as a control cell line containing two MLL (KMT2A) wildtype alleles in order to exclude compounds that display general cytotoxic effects.\n(§2) MOLM14 cells were cultured in RPMI-1640 (Sigma Aldrich) supplemented with 10% heat-inactivated fetal bovine serum (HyClone), 2 mM L-glutamine (Sigma Aldrich) and 50 μg/ml gentamycin (Gibco). KO-52 and OCI-AML3 cell lines were propagated in alpha-MEM (Sigma Aldrich) supplemented with 20% heat-inactivated fetal bovine serum (HyClone), 2 mM L-glutamine (Sigma Aldrich) and 50 μg/ml gentamycin (Gibco).\nIn order to assess the anti-proliferative effects, 200 MOLM14 cells, […] or 300 KO-52 cells were seeded in 200 μl media per well in 96-well round bottom, ultra-low attachment plates (Costar, catalogue number 7007). Cell seeding numbers were chosen based on growth curves to ensure linear growth throughout the experiment. Test compounds were added at different concentrations and the DMSO content was normalized to 0.3%. Cells were incubated for 8 days at 37° C. and 5% CO2. Spheroid like growth was measured in real-time by live-cell imaging (IncuCyteZOOM, Essenbio, 4× objective) acquiring images at day 8. Confluence (%) as a measure of spheroid size was determined using an integrated analysis tool.\nIn order to determine the effect of the test compounds over time, the confluence in each well as a measure of spheroid size, was calculated. Confluence of the highest dose of a reference compound was used as baseline for the LC (Low control) and the confluence of DMSO treated cells was used as 0% cytotoxicity (High Control, HC).\nAbsolute IC50 values were calculated as percent change in confluence as follows: • LC=Low Control: cells treated with e.g. 1 μM of the cytotoxic agent staurosporin, or e.g. cells treated with a high concentration of an alternative reference compound • HC═High Control: Mean confluence (%) (DMSO treated cells) • % Effect=100−(100*(Sample-LC)/(HC-LC))\nGraphPad Prism (version 7.00) was used to calculate the ICso. Dose-response equation was used for the plot of % Effect vs Log10 compound concentration with a variable slope and fixing the maximum to 100% and the minimum to 0%."}, "OCI-AML3 cells": {"system": "OCI-AML3 cells", "assay": "Proliferation (spheroid) assay, OCI-AML3", "format": "cell-based", "conditions": "Homo sapiens, OCI-AML-3, 192 h; 8 days; read-out: spheroid assay_OCI-AML3 IC50", "experimental": "as §1, §2\n(§3) In order to assess the anti-proliferative effects, 200 MOLM14 cells, 200° C. […] Spheroid like growth was measured in real-time by live-cell imaging (IncuCyteZOOM, Essenbio, 4× objective) acquiring images at day 8. Confluence (%) as a measure of spheroid size was determined using an integrated analysis tool.\n(§4) In order to determine the effect of the test compounds over time, the confluence in each well as a measure of spheroid size, was calculated. […]"}, "KO-52 cells": {"system": "KO-52 cells", "assay": "Proliferation (spheroid) assay, KO-52 control cell line", "format": "cell-based", "conditions": "Homo sapiens, 192 h; 8 days; read-out: spheroid assay_KO-52 IC50", "experimental": "as §1, §2, §3, §4"}, "MEIS1 mRNA": {"system": "MEIS1 mRNA", "assay": "MEIS1 mRNA expression assay (Quantigene Singleplex) in MOLM14 cells", "format": "cell-based", "conditions": "Homo sapiens, MOLM-14, 48 hours", "experimental": "2b) MEIS1 mRNA Expression Assay\nMEIS1 mRNA expression upon treatment of compound was examined by Quantigene Singleplex assay (Thermo Fisher Scientific). This technology allows for direct quantification of mRNA targets using probes hybridizing to defined target sequences of interest and the signal is detected using a Multimode plate reader Envision (PerkinElmer). The MOLM14 cell line was used for this experiment. Cells were plated in 96-well plates at 3,750 cells/well in the presence of increasing concentrations of compounds. After incubation of 48 hours with compounds, cells were lysed in lysis buffer and incubated for 45 minutes at 55° C. Cell lysates were mixed with human MEIS1 specific capture probe or human RPL28 (Ribosomal Protein L28) specific probe as a normalization control, as well as blocking probes. Cell lysates were then transferred to the custom assay hybridization plate (Thermo Fisher Scientific) and incubated for 18 to 22 hours at 55° C. Subsequently, plates were washed to remove unbound materials followed by sequential addition of preamplifiers, amplifiers, and label probe. Signals (=gene counts) were measured with a Multimode plate reader Envision. IC50s were calculated by dose-response modelling using appropriate software. For all non-housekeeper genes response equal counts corrected for background and relative expression. For each sample, each test gene signal (background subtracted) was divided by the normalization gene signal (RPL28: background subtracted). Fold changes were calculated by dividing the normalized values for the treated samples by the normalized values for the DMSO treated sample. Fold changes of each target gene were used for the calculation of IC50s."}, "[1]": {"assay": "Dynamic vapor sorption (DVS) moisture sorption analysis", "format": "physicochemical", "experimental": "Dynamic Vapor Sorption (DVS)\nThe moisture sorption analysis (DVS) was performed using a ProUmid GmbH & Co.\nKG Vsorp Enhanced dynamic vapor sorption apparatus. The moisture profile was evaluated by monitoring vapor adsorption/desorption over the range of 0 to 90% relative humidity at 25° C. The sample weight equilibrium criteria were set at 0.01% change in 45 min with minimum and maximum time of acclimation at 50 min and 120 min, respectively. The moisture profile consisted of 2 cycles of vapor adsorption/desorption."}, "[2]": {"conditions": "common ambient RH of 40% to 75%"}}, "note": "pIC50: −log10 of the molar value."}
{"compound": "CC(=O)N1CCC(CN2CC[C@@H](Cc3cn(-c4ccc(F)cc4C(=O)N(C)C(C)C)c4cncc(C)c34)C2)CC1", "note": "[Compound 51a]", "values": [{"measurement": "pIC50", "setting": "MOLM14 cells", "value": 7.89}, {"measurement": "pIC50", "setting": "OCI-AML3 cells", "value": 7.15}, {"measurement": "pIC50", "setting": "KO-52 cells", "value": 5.92}, {"measurement": "pIC50", "setting": "MEIS1 mRNA", "value": 7.96}, {"measurement": "total moisture mass at equilibrium", "setting": "[1]; [2]", "value": "8.5-9.5%"}, {"measurement": "water content at equilibrium", "setting": "[1]; [2]", "value": "around 3 equivalents of water"}, {"measurement": "hygroscopicity (DVS change in mass plot)", "setting": "[1]; crystalline HCl salt Form, 0 to 90% relative humidity, 25° C.", "value": "hygroscopic"}, {"measurement": "solid-state form after DVS test (XRPD)", "setting": "[1]; fraction obtained after the DVS test compared to starting material", "value": "No indication of a solid-state form change"}, {"measurement": "moisture adsorbed and desorbed, on average", "setting": "[1]; humidity range of 20-90% RH, 25° C.", "value": "up to 2.5 % by mass"}]}
